The source of these data is the COVID Moonshot data (paper PMC7615835).

For data set [1], the target named is SARS-CoV-2 Main Protease (SARS-CoV-2) (UniProt P0DTD1).
Experiment in data set [2]: not given
The source holds these as a separate data set.

For data set [3] the following is noted: rat; plasma.
The conditions of data set [4]: human; liver_microsomes.
The target of data set [5] is PSP (Eurofins): hr ERalpha (Binding) (AC50) (UniProt P03372).
The conditions of data set [6]: human; plasma.
Experiment in data set [7]: not given
The source holds these as a separate data set.

For data set [8] the following is noted: in vivo, iv.
The conditions of data set [9]: dog; liver_microsomes.
For data set [10] the following is noted: rat; in vivo; po; 10.0 mg/kg.

Where “and” joins values, the source holds several entries; their conditions need not be identical. Equal values may be shown once.

Sequence of UniProt P03372 (P03372 whole entry, looked up): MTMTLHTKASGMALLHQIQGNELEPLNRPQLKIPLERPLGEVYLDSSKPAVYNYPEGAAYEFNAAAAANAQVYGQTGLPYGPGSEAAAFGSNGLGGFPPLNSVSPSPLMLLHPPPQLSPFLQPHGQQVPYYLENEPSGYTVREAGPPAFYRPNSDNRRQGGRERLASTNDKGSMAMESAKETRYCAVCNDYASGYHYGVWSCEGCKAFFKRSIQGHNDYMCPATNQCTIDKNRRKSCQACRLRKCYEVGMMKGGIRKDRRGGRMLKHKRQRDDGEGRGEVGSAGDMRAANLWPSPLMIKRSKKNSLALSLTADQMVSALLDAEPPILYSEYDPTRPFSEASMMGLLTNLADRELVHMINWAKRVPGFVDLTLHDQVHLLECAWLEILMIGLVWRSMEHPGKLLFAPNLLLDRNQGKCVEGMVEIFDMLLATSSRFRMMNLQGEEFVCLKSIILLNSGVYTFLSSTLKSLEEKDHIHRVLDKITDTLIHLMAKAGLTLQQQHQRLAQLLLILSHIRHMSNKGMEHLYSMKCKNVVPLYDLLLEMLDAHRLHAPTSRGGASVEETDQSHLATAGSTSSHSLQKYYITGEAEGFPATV

On to `COCCN1CCC(C(=O)Nc2cncc3ccccc23)c2cc(Cl)ccc21` (configuration not stated), for which the 50% inhibitory concentration (IC50) – broadly, the concentration at which inhibition is half-maximal – in data set [1] stood at 564 nM. The same molecule gave a CC50 (a549) greater than 9990 nM.
In the same order, the values of `CC1CN(S(C)(=O)=O)CCC1NC(=O)CC1(C(=O)Nc2cncc3ccccc23)CCOc2ccc(Cl)cc21` (configuration not stated) are 2790 nM and greater than 9990 nM.
As to `CS(=O)(=O)N1Cc2ccc(Cl)cc2[C@H](C(=O)Nc2cncc3ccccc23)C1` (stereo in doubt), the logD (as a rule, lipophilicity at a set pH, counting ionised and neutral species) in [2] amounted to 2.2.
Turning to `O=C(Nc1cncc2ccccc12)C1CN(S(=O)(=O)CC2CNC2)Cc2ccc(Cl)cc21` (configuration not stated), the fraction unbound (usually the share of the substance not bound to proteins or other matrix) in data set [3] came to 0.335. The microsomal CLint (as a rule, a measure of how fast metabolising enzymes remove a compound, apart from limits set by blood flow) in [4] was 10 µL/min/mg. Moreover, the AC50 (in general, the midpoint of the concentration-response curve, whichever way the signal moves) in data set [5] is 20400 nM. In [6], this molecule showed a fraction unbound of 0.295. In [7] (mdck), the Fa is 30.7%; the Papp A→B – broadly, how fast a substance crosses the layer from the apical side – was found to be 1.6 ×10⁻⁶ cm/s; the recovery was 93%. Moreover, in data set [7] (mdck_mdr1), the Papp A→B was 0.517 ×10⁻⁶ cm/s and 0.7 ×10⁻⁶ cm/s; the Papp B→A (commonly the apparent permeability from the basolateral to the apical side of a cell layer) is 0.896 ×10⁻⁶ cm/s and 0.9 ×10⁻⁶ cm/s. The pH-dependent lipophilicity (logD) in [2] came out at 0.2. Also, in [8] (rat, 0.5 mg/kg), the total exposure AUC(0-inf) (as a rule, the area under the concentration-time curve extrapolated to infinity) was 83.4 ng·h/mL and 86.5 ng·h/mL; the exposure AUC(0-t) (commonly the area under the concentration-time curve up to a stated or last time point) was 76.9 ng·h/mL and 76.7 ng·h/mL; the C0 was 406 ng/mL and 381 ng/mL; the MRT inf – broadly, a mean duration of stay, worked out from the concentration-time curve – is 67.2 min and 61.8 min. Also, in data set [8] (rat, 0.5 mg/kg), the MRT last (usually the average time that molecules of a dose stay in the body) is 33.2 min and 32 min; the volume of distribution (Vd) (commonly a proportionality between amount in the body and measured concentration, not a real space) was 5.86 L/kg and 6.06 L/kg; the clearance (as a rule, a measure of how efficiently the substance is removed, as volume per time) was 94.6 mL/min/kg and 91.2 mL/min/kg; the half-life (in general, the time needed for the level to fall by half in the phase considered) was found to be 91.2 min.
The molecule `C[C@@H]1C[C@@H](C(=O)Nc2cncc3ccccc23)c2cc(Cl)ccc2O1` (stereo in doubt) returned an IC50 in data set [1] of 231 nM. This molecule registered a pH-dependent lipophilicity (logD) in data set [2] of 3.4.
Consider `O=C(Nc1cncc2cc(CO)ccc12)C1CCOc2ccc(Cl)cc21` (configuration not stated), for which the IC50 in data set [1] came out at 1400 nM. This molecule had a logD in [2] of 2.2. Further, in data set [8] (rat, 0.5 mg/kg), the total exposure AUC(0-inf) was 187 ng·h/mL and 325 ng·h/mL; the AUC(0-t) is 182 ng·h/mL and 321 ng·h/mL; the C0 is 518 ng/mL and 742 ng/mL; the MRT inf was 36.2 min and 29.3 min. Moreover, in data set [8] (rat, 0.5 mg/kg), the MRT last was 26 min and 34 min; the Vd was 1.31 L/kg and 0.947 L/kg; the clearance was 44.6 mL/min/kg and 26.8 mL/min/kg; the half-life was 27.7 min.
`O=C(Nc1cncc2c1CCCC2)C1CCNc2cc(Cl)c(Cl)cc21` (configuration not stated) gave a logD in [2] of 3.9.
In [3], `O=C(Nc1cncc2ccccc12)C1CCS(=O)(=O)c2ccc(Cl)cc21` (configuration not stated) returned a free fraction (fraction unbound) of 0.2 and a recovery of 98%. In addition, in data set [1], the IC50 stood at 288 nM. This molecule came in with a microsomal CLint in data set [4] of 10 µL/min/mg. For the same molecule, in [6], the unbound share (fraction unbound) was 0.106 and 0.125; the recovery was determined as 96.9%. The half-life in data set [9] amounted to 69 min. In [2], this molecule had a logD of 2. For the same molecule, in data set [8] (mouse, 0.5 mg/kg), the AUC(0-inf) was 192 ng·h/mL and 207 ng·h/mL; the AUC(0-t) was 190 ng·h/mL and 204 ng·h/mL; the C0 was 460 ng/mL and 586 ng/mL; the mean residence time (MRT inf) was 26.5 min and 25.2 min. For the same molecule, in [8] (mouse, 0.5 mg/kg), the MRT last was 25.1 min and 23.6 min; the Vd was 1.09 L/kg and 0.972 L/kg; the clearance is 41.3 mL/min/kg and 38.6 mL/min/kg; the half-life was 18.4 min and 19.9 min. Besides, in [8] (rat, 2.0 mg/kg), the AUC(0-inf) came to 2890 ng·h/mL; the AUC(0-t) was 2850 ng·h/mL and 2840 ng·h/mL; the C0 was 1400 ng/mL and 1460 ng/mL; the MRT inf is 112 min and 98.4 min. Besides, in data set [8] (rat, 2.0 mg/kg), the MRT last was 92.4 min and 101 min; the Vd was 1.13 L/kg and 1.29 L/kg; the clearance is 11.5 mL/min/kg and 11.6 mL/min/kg; the half-life is 78 min and 88.2 min. Also, in data set [10], the AUC(0-inf) came to 14300 ng·h/mL; the AUC(0-t) is 14300 ng·h/mL; the apparent clearance CL/F (as a rule, the apparent clearance, not corrected for the fraction that reaches the circulation) is 11.9 mL/min/kg; the MRT inf is 205 min. Moreover, in data set [10], the mean residence time (MRT last) worked out at 205 min; the time to peak (Tmax) (in general, the time at which the peak concentration occurs) was found to be 60 min; the half-life was determined as 115 min.
Turning to `O=C(Cc1cccc(Cl)c1)Nc1cncc2cccc(F)c12`, the IC50 in data set [1] is 1310 nM. In data set [2], this molecule returned a pH-dependent lipophilicity (logD) of 3.1.
As to `O=C(Nc1cnccc1C1CC1)C1CCNc2cc(Cl)c(Cl)cc21` (configuration not stated), the CC50 (a549) was greater than 9990 nM. The same molecule displayed a CC50 (mda-md-435) greater than 9990 nM. In data set [8] (rat, 0.5 mg/kg), the AUC(0-inf) was 144 ng·h/mL and 96.1 ng·h/mL; the AUC(0-t) is 142 ng·h/mL and 94.2 ng·h/mL; the C0 is 341 ng/mL and 180 ng/mL; the MRT inf was 46.2 min and 45.9 min. Further, in data set [8] (rat, 0.5 mg/kg), the MRT last is 40.6 min and 41 min; the Vd is 2.65 L/kg and 4.01 L/kg; the clearance is 57.7 mL/min/kg and 86.8 mL/min/kg; the half-life is 49.4 min and 48.2 min.
Take `CC(C)(C)c1ccc(N(C(=O)c2cocn2)C(C(=O)NC2COC2)c2cccnc2)cc1` (configuration not stated): in data set [1], the half-inhibitory concentration (IC50) turned out to be 4070 nM. The same molecule came in with a CC50 (vero) greater than 10000 nM.
`O=C(Nc1cncc2ccccc12)C1CN(S(=O)(=O)C2CNC2)Cc2ccc(Cl)cc21` (configuration not stated) showed an IC50 in [1] of 274 nM. The logD in data set [2] is 1.4.
`CC(C)(C)c1ccc(N(C(=O)c2cocn2)C(C(=O)NCC2CCCO2)c2cccnc2)cc1` (configuration not stated): the 50% inhibitory concentration (IC50) in data set [1] was 5150 nM. In addition, the CC50 (vero) is greater than 10000 nM.
For the molecule `COCCS(=O)(=O)N1Cc2ccc(Cl)cc2C(C(=O)Nc2cncc3ccccc23)C1` (configuration not stated), the IC50 in data set [1] is 211 nM and 214 nM. Also, in data set [2], the logD was determined as 2.3.
For `N#CC1(CS(=O)(=O)N2Cc3ccc(Cl)cc3C(C(=O)Nc3cncc4ccccc34)C2)CNC1` (configuration not stated), the IC50 in [1] is 169 nM. The molecule also came in with a log distribution coefficient (logD) in [2] of 1.8. In addition, in data set [8] (rat, 0.5 mg/kg), the total exposure AUC(0-inf) is 101 ng·h/mL and 104 ng·h/mL; the area under the curve AUC(0-t) was 99.7 ng·h/mL and 102 ng·h/mL; the C0 was 417 ng/mL and 369 ng/mL; the mean residence time (MRT inf) is 24.5 min and 22.7 min. Moreover, in [8] (rat, 0.5 mg/kg), the MRT last is 20.7 min and 22.2 min; the Vd is 1.55 L/kg and 1.68 L/kg; the clearance is 68.6 mL/min/kg and 67.4 mL/min/kg; the half-life is 20.8 min and 21.5 min.
As for `COc1ccc2cncc(NC(=O)[C@]3(OC)CCOc4ccc(Cl)cc43)c2c1` (stereo in doubt), the IC50 in data set [1] is 61.2 nM and 76.5 nM and 85.3 nM. For the same molecule, the pH-dependent lipophilicity (logD) in data set [2] stood at 3.4.
In turn, `COC(=O)C1(NC(=O)C(c2cccnc2)N(C(=O)c2cocn2)c2ccc(C(C)(C)C)cc2)CCCC1` (configuration not stated) yielded a 50% inhibitory concentration (IC50) in data set [1] of 5260 nM. The molecule further showed a CC50 (vero) greater than 10000 nM.
In turn, `O=C(Nc1cncc2ccccc12)C1CCN(Cc2ccn[nH]2)c2ccc(Cl)cc21` (configuration not stated) displayed a half-inhibitory concentration (IC50) in data set [1] of 803 nM. Also, under “a549”, the CC50 was greater than 9990 nM.
In data set [1], `CN(C)C(=O)CNCC1(C(=O)Nc2cncc3ccccc23)CCOc2ccc(Cl)cc21` (configuration not stated) showed an IC50 of 603 nM. The molecule also yielded a log distribution coefficient (logD) in data set [2] of 2.7.
In data set [1], `CN(C)C(=O)CC1(C(=O)Nc2cncc3ccccc23)CCOc2ccc(Cl)cc21` (configuration not stated) had a half-maximal inhibitory concentration (IC50) of 2920 nM. For the same molecule, the CC50 (a549) is greater than 9990 nM.
